In patent publication US9346761B2, “Arginine methyltransferase inhibitors and uses thereof” (Epizyme, Inc., priority 2013, dated 2016):

The compounds below were run against T1, Full-length human PRMT3 (Homo sapiens, UniProt O60678) (assay: PRMT3 biochemical assay (3H-SAM Flashplate, peptide substrate)).
T1 construct: GST-tagged PRMT3; made in house; host or cells: E. coli BL21(DE3) Gold (pGEX-KG)
T1 sequence (O60678 with tags, fused parts or gaps): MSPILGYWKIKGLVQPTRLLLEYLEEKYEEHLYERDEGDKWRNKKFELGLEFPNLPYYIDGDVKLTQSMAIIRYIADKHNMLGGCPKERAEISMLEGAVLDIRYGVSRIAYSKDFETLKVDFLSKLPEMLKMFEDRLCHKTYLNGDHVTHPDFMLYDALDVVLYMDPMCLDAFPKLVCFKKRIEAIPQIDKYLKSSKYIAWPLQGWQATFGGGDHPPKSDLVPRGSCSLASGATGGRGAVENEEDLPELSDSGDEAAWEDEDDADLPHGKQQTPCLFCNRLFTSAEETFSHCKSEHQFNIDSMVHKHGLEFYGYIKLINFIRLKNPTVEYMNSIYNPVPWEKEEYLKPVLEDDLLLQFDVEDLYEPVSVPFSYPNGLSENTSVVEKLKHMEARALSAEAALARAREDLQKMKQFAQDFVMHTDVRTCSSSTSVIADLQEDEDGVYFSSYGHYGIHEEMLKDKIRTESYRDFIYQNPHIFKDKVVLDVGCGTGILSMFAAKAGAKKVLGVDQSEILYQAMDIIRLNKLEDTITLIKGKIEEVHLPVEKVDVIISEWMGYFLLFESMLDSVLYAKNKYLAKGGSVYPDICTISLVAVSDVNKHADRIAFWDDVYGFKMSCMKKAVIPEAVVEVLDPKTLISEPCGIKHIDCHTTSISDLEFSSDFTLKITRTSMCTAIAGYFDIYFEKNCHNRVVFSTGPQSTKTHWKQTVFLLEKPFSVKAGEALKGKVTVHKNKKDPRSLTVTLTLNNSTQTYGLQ
Source text: General Materials. S-adenosylmethionine (SAM), S-adenosylhomocysteine (SAH), bicine, Tween20, dimethylsulfoxide (DMSO), bovine skin gelatin (BSG),), isopropyl-β-D-thiogalactopyranoside (IPTG), and Tris(2-carboxyethyl)phosphine hydrochloride solution (TCEP) were purchased from Sigma-Aldrich at the highest level of purity possible. ^3H-SAM was purchase from American Radiolabeled Chemicals with a specific activity of 80 Ci/mmol. 384-well streptavidin Flashplates were purchased from PerkinElmer.
Substrates. Peptide containing the classic RMT substrate motif was synthesized with an N-terminal linker-affinity tag motif and a C-terminal amide cap by 21st Century Biochemicals. The peptide was purified by high-performance liquid chromatography (HPLC) to greater than 95% purity and confirmed by liquid chromatography mass spectrometry (LC-MS). The sequence was Biot-Ahx-[…]-amide (SEQ ID NO.:11).
Molecular Biology: : Full-length human PRMT3 (NM_005788.3) isoform 1 transcript clone was amplified from an HEK 293 cDNA library and subcloned into pGEX-KG (GE Life Sciences). The resulting construct encodes an N-terminal GST tag and a thrombin cleavage sequence ([…] […] […] […]) (SEQ ID NO.:12) fused directly to Cys 2 of PRMT3.
Protein Expression. E. coli (BL21(DE3) Gold, Stratagene) made competent by the CaCl2 method were transformed with the PRMT3 construct and ampicillin selection. Protein over-expression was accomplished by growing the PRMT3 expressing E. coli clone and inducing expression with 0.3 mM IPTG at 16° C. The culture was grown for 12 hours, harvested by centrifugation, and stored at −80° C. for purification.
Protein Purification. […] GST-tagged PRMT3 eluted with 25-400 mM phosphate in buffer C. Protein was concentrated and buffer was exchanged to 20 mM Tris, 150 mM NaCl, 5% glycerol, 5 mM β-mercaptoethanol, pH7.8 by ultrafiltration. The purity of recovered protein was 70%.
General Procedure for PRMT3 Enzyme Assays on Peptide Substrates. The assays were all performed in a buffer consisting of 20 mM Bicine (pH=7.6), 1 mM TCEP, 0.005% BSG, and 0.002% Tween 20, prepared on the day of use. Compounds in 100% DMSO (1 ul) were spotted into a polypropylene 384-well V-bottom plates (Greiner) using a Platemate Plus outfitted with a 384-channel head (Thermo Scientific). DMSO (1 ul) was added to Columns 11, 12, 23, 24, rows A-H for the maximum signal control and 1 ul of SAH, a known product and inhibitor of PRMT3, was added to columns 11, 12, 23, 24, rows I-P for the minimum signal control. A cocktail (40 ul) containing the PRMT3 enzyme was added by Multidrop Combi (Thermo-Fisher). The compounds were allowed to incubate with PRMT3 for 30 min at room temperature, then a cocktail (10 ul) containing SAM and peptide was added to initiate the reaction (final volume=51 ul). The final concentrations of the components were as follows: PRMT3 was 0.5 nM, ^3H-SAM was 100 nM, non-radiolabeled SAM was 1.8 uM, peptide was 330 nM, SAH in the minimum signal control wells was 1 mM, and the DMSO concentration was 2%. The assays were stopped by the addition of potassium chloride (10 ul) to a final concentration of 100 mM. 50 ul of the reaction in the 384-well polypropylene plate was then transferred to a 384-well Flashplate and the biotinylated peptides were allowed to bind to the streptavidin surface for at least 1 hour before being washed once with 0.1% Tween20 in a Biotek ELx405 plate washer. The plates were then read in a PerkinElmer TopCount plate reader to measure the quantity of ^3H-labeled peptide bound to the Flashplate surface, measured as disintegrations per minute (dpm) or alternatively, referred to as counts per minute (cpm).
Where dpm=disintegrations per minute, cmpd=signal in assay well, and min and max are the respective minimum and maximum signal controls.
Where top and bottom are the normally allowed to float, but may be fixed at 100 or 0 respectively in a 3-parameter fit. […]
With `CC(C)Cc1ccc(-c2c[nH]nc2CN(C)CCN)cc1` [Compound 170] the IC50 was 3.01 to 10 µM. In the case of `NCCN(CCO)Cc1c[nH]nc1-c1ccc(F)cc1` [Compound 171], the IC50 is reported as > 10 µM. `CN(CCN)Cc1c[nH]nc1-c1ccc(OCCN2CCOCC2)cc1` [Compound 172] was tested, and the IC50 was 3.01 to 10 µM.
